How the values were obtained:
[1] = molecular target: T1, Bifunctional epoxide hydrolase 2 (Homo sapiens, UniProt P34913); test: Inhibition of sEH (unknown origin) assessed as 6-methoxy-2-naphthaldehyde formation by fluorometry assay using 40 uM cyano-(6-methoxy-naphthalen-2-yl)-methyl ester as substrate
T1 sequence (P34913 whole entry): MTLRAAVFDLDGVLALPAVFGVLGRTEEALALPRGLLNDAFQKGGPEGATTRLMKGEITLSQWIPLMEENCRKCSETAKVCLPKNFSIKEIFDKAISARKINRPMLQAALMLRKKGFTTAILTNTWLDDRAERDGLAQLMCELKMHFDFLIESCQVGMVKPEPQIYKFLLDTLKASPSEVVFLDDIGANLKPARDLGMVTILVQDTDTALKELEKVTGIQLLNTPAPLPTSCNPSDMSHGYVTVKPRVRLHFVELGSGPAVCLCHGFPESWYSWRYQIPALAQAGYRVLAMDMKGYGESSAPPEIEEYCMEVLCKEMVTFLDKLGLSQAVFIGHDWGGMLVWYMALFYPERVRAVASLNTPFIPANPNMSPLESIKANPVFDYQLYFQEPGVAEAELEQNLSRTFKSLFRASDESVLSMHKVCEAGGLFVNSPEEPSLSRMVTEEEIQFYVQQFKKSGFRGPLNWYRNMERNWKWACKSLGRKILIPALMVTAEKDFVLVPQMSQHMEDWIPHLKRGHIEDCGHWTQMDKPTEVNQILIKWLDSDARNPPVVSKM

[2] = molecular target: T2, Bifunctional epoxide hydrolase 2 (Homo sapiens) (UniProt P34913); settings: at 50 µM
T2 sequence (whole entry): T1 sequence (P34913 whole entry)
Description: Inhibition of sEH (unknown origin) assessed as 6-methoxy-2-naphthaldehyde formation at 50 uM by fluorometry assay using 40 uM cyano-(6-methoxy-naphthalen-2-yl)-methyl ester as substrate

[3] = molecular target: T1, Bifunctional epoxide hydrolase 2; test: Reversible-uncompetitive inhibition of sEH (unknown origin) by Lineweaver-Burk plot

| Structure (SMILES) | IC50 [1] [µM] | inhibition [2] [%] | Ki [3] [µM] |
| --- | --- | --- | --- |
| COc1cc(O[C@@H]2O[C@H](CO[C@@H]3O[C@H](CO)[C@@H](O)[C@H](O)[C@H]3O)[C@@H](O)[C@H](O)[C@H]2O)c2c(O)c3c(=O)oc(C)cc3cc2c1 | 20 | 67.6 | – |
| COc1cc(O[C@@H]2O[C@H](CO[C@@H]3O[C@H](CO)[C@@H](O)[C@H](O)[C@H]3O)[C@@H](O)[C@H](O)[C@H]2O)c2c(c1)C(=O)c1cc(C)cc(O)c1C2=O | 40.6 | 51 | – |
| COc1c(O)cc2c(c1O)C(=O)c1c(cc(C)c(O)c1OC)C2=O | – | 0 | – |
| COc1c(O[C@@H]2O[C@H](CO)[C@@H](O)[C@H](O)[C@H]2O)c(C)cc2c1C(=O)c1c(O)cccc1C2=O | 24.3 | 50.6 | – |
| Cc1cc(O)c2c(c1)C(=O)c1cc(O)cc(O)c1C2=O [EMODIN] | 36.4 | 56.4 | – |
| COc1cc(O)c2c(c1)C(=O)c1cc(C)cc(O)c1C2=O | – | 27.1 | – |
| COc1cc2c(c(OC)c1OC)C(=O)c1c(cc(C)c(O)c1OC)C2=O [CHRYSOOBTUSIN] | 26.3 | 59.8 | – |
| COc1cc(O[C@@H]2O[C@H](CO[C@@H]3O[C@H](CO)[C@@H](O)[C@H](O)[C@H]3O)[C@@H](O)[C@H](O)[C@H]2O)c2c(O)c3c(=O)cc(C)oc3cc2c1 | 37.5 | 50.9 | – |
| COc1c(O)c(C)cc2c1C(=O)c1c(O)cccc1C2=O | – | 2.6 | – |
| COc1c(O[C@@H]2O[C@H](CO)[C@@H](O)[C@H](O)[C@H]2O)cc2c(c1O)C(=O)c1c(cc(C)c(O)c1OC)C2=O | 33 | 57.7 | – |
| COc1cc(O[C@@H]2O[C@H](CO)[C@@H](O)[C@H](O)[C@H]2O)c2c(O)c3c(=O)cc(C)oc3cc2c1 | – | 38.1 | – |
| COc1cc2c(c(O)c1OC)C(=O)c1c(cc(C)c(O)c1OC)C2=O | 26.4 | 55.1 | – |
| COc1ccc2c(c1O)C(=O)c1c(cc(C)c(O)c1OC)C2=O | 35.7 | 54.2 | – |
| COc1cc(O[C@@H]2O[C@H](CO)[C@@H](O)[C@H](O)[C@H]2O)c2c(OC)c(C(C)=O)c(O[C@H]3OC[C@@](O)(CO)[C@@H]3O)cc2c1 | 2.2 | 91.6 | 0.6 |
| Cc1cc(O)c2c(c1)C(=O)c1cccc(O)c1C2=O | – | 38.1 | – |
| COc1cc2c(c(OC)c1OC)C(=O)c1c(cc(C)c(O[C@@H]3O[C@H](CO)[C@@H](O)[C@H](O)[C@H]3O)c1OC)C2=O | – | 28.6 | – |
